Results on ten compounds are retold here after ChEMBL document CHEMBL1201862, “PubChem BioAssay data set” (2004).

Some test systems named below: Malme-3M; NCI/ADR-RES; SF-295; TK-10; MOLT-4; MDA-MB-231; SNB-19; UACC-257; T47D; SK-MEL-5; HCC 2998; HCT-116; SK-MEL-28; HL-60; SR; OVCAR-4; U-251; DU-145; SF-539; EKVX.
Holding throughout (assay): NCI anticancer screen, dose series, 48 h

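Briefly, cells in 96-well plates were exposed to five compound concentrations for 48 h, and endpoints were estimated by linear interpolation. Abbreviation: GI50, concentration required for 50% inhibition of growth.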 Active and inactive are the calls of the source. Rule as the data show it: active = GI50 up to about 1.1 µM and inactive = higher.

Consider `CC(=O)CCNc1ccc(-c2cc(-c3ccc(N(C)C)cc3)nc3ccc4ccccc4c23)cc1`, for which the GI50 in the assay on Malme-3M was > 67.8 µM (inactive); with NCI/ADR-RES it was 97.9 µM (inactive); in the assay on SF-295, > 59.4 µM (inactive); in the assay with TK-10, > 100 µM (inactive); in the assay on MOLT-4 it was 6.76 µM (inactive); with MDA-MB-231, > 75 µM (inactive). Moreover, the GI50 in the assay with SNB-19 was > 100 µM (inactive); in the assay on UACC-257 it was > 100 µM (inactive); in the assay on T47D, 9.48 µM (inactive); with SK-MEL-5 it was 59.8 µM (inactive); with HCC 2998, > 100 µM (inactive); in the assay with HCT-116, 18.5 µM (inactive). Moreover, the GI50 in the assay with SK-MEL-28 was 34.8 µM (inactive); in the assay with HL-60, 3.7 µM (inactive); in the assay on SR, 7.11 µM (inactive); with OVCAR-4, 6.52 µM (inactive); in the assay on U-251, > 84.9 µM (inactive); with DU-145, > 57.5 µM (inactive). Further, the figures for the GI50 in the assay on SF-539 and in the assay on EKVX were > 53.7 µM (inactive) and > 51.5 µM (inactive), respectively.

Regarding `COc1ccc(/C=C2\CN(C)C/C(=C\c3ccc(OC)c(OC)c3OC)C2=O)c(OC)c1OC`, the GI50 in the assay with Malme-3M is 0.171 µM (active); in the assay on NCI/ADR-RES, 0.145 µM (active); in the assay with SF-295, 0.272 µM (active); with TK-10 it was 1.01 µM (active); in the assay with MOLT-4, 0.0685 µM (active); in the assay on MDA-MB-231 it was 0.282 µM (active). In addition, the GI50 in the assay with SNB-19 is 0.237 µM (active); in the assay with UACC-257, 0.249 µM (active); in the assay with T47D, 1.05 µM (active); in the assay with SK-MEL-5, 0.259 µM (active); with HCC 2998, 0.171 µM (active); with HCT-116, 0.111 µM (active). For the same compound, the GI50 in the assay with SK-MEL-28 is 0.147 µM (active); with HL-60 it was 0.0191 µM (active); with SR, 0.0658 µM (active); with OVCAR-4 it was 0.253 µM (active); with U-251, 0.0333 µM (active); in the assay on DU-145 it was 0.333 µM (active). The GI50 is 0.102 µM (active) in the assay on SF-539 and 1.67 µM (inactive) with EKVX.

In the case of `O=C1NC(N2CCOCC2)=N/C1=C\c1ccc(Cl)cc1`, the GI50 with Malme-3M, in the assay with NCI/ADR-RES, in the assay with SF-295, in the assay with TK-10, in the assay on MOLT-4 and in the assay on MDA-MB-231 was > 100 µM (inactive) each time. The GI50 in the assay on SNB-19, with UACC-257, in the assay with T47D, in the assay with HCC 2998, with HCT-116 and in the assay with SK-MEL-28 was > 100 µM (inactive) each time. The GI50 with HL-60, in the assay on SR, in the assay on OVCAR-4, in the assay with U-251, with DU-145 and in the assay with SF-539 was > 100 µM (inactive) in each case. In the assay on EKVX, the GI50 is > 100 µM (inactive).

On to `COC12CCCN1c1ccn(Cc3ccccc3)c(=O)c1C2=O` (stereo not drawn), for which the GI50 is > 100 µM (inactive) in the assay on Malme-3M; > 100 µM (inactive) in the assay with NCI/ADR-RES; > 100 µM (inactive) in the assay with SF-295; > 100 µM (inactive) in the assay on TK-10; 28.7 µM (inactive) in the assay on MOLT-4; > 100 µM (inactive) in the assay on MDA-MB-231. Moreover, the GI50 in the assay on SNB-19, in the assay on UACC-257, in the assay with T47D, with SK-MEL-5, with HCC 2998 and with HCT-116 was > 100 µM (inactive) throughout. For the same compound, the GI50 with SK-MEL-28 is > 100 µM (inactive); in the assay with HL-60 it was 66.1 µM (inactive); with SR, > 100 µM (inactive); in the assay on OVCAR-4, > 100 µM (inactive); with U-251, > 100 µM (inactive); in the assay with DU-145, > 100 µM (inactive). Also, the GI50 in the assay with SF-539 and in the assay with EKVX was > 100 µM (inactive) throughout.

On to `O=C(Cc1cc(=O)oc2cc(O)ccc12)N/N=C/c1ccc(N(CCCl)CCCl)cc1`, for which the GI50 with Malme-3M is 20.5 µM (inactive); in the assay on NCI/ADR-RES it was 84.1 µM (inactive); with SF-295 it was 18.1 µM (inactive); in the assay on MOLT-4 it was 15.3 µM (inactive); in the assay on MDA-MB-231 it was 18.5 µM (inactive); in the assay on SNB-19 it was 21.1 µM (inactive). In addition, the GI50 is 22.1 µM (inactive) with UACC-257; > 10 µM (inactive) in the assay on T47D; 14.6 µM (inactive) with SK-MEL-5; > 100 µM (inactive) in the assay on HCC 2998; 16.6 µM (inactive) in the assay with HCT-116; 15.1 µM (inactive) in the assay on SK-MEL-28. Moreover, the GI50 with HL-60 is 14.5 µM (inactive); in the assay on SR, 14.2 µM (inactive); in the assay on OVCAR-4, 23.8 µM (inactive); in the assay with U-251, 17.4 µM (inactive); with DU-145 it was 19.6 µM (inactive); in the assay on SF-539, 18 µM (inactive). Further, the GI50 in the assay with EKVX is 17.5 µM (inactive).

Consider `Clc1ccc(-c2nn3c(C45CC6CC(CC(C6)C4)C5)nnc3s2)cc1`, for which the GI50 in the assay on Malme-3M was > 100 µM (inactive); in the assay on NCI/ADR-RES it was > 100 µM (inactive); in the assay with SF-295, > 100 µM (inactive); in the assay with TK-10, > 100 µM (inactive); in the assay on MOLT-4 it was > 100 µM (inactive); with MDA-MB-231, 55.6 µM (inactive). The GI50 in the assay with SNB-19 was > 100 µM (inactive); in the assay with T47D, > 100 µM (inactive); in the assay with SK-MEL-5, > 100 µM (inactive); in the assay with HCC 2998 it was > 100 µM (inactive); in the assay with HCT-116 it was 63.1 µM (inactive); in the assay on SK-MEL-28, > 100 µM (inactive). Besides, the GI50 with HL-60 is > 100 µM (inactive); in the assay with SR it was > 100 µM (inactive); in the assay on OVCAR-4, 34.4 µM (inactive); with U-251, > 100 µM (inactive); in the assay with DU-145, > 100 µM (inactive); in the assay with SF-539, > 100 µM (inactive). The GI50 in the assay with EKVX was > 100 µM (inactive).

Turning to `CC(C)(C)Cc1cc(O)ccc1O`, the GI50 with Malme-3M is > 100 µM (inactive); in the assay on NCI/ADR-RES, 35.6 µM (inactive); in the assay with SF-295, 44 µM (inactive); in the assay with TK-10, > 100 µM (inactive); in the assay with MOLT-4, 36.4 µM (inactive); with MDA-MB-231, 42.2 µM (inactive). Also, the GI50 was 49.9 µM (inactive) in the assay with SNB-19; 33.3 µM (inactive) in the assay with UACC-257; 60.5 µM (inactive) with T47D; 51.9 µM (inactive) with HCC 2998; 61.1 µM (inactive) with HCT-116; > 100 µM (inactive) with SK-MEL-28. Besides, the GI50 was 6.73 µM (inactive) with HL-60; 24 µM (inactive) in the assay with SR; > 100 µM (inactive) in the assay on OVCAR-4; 43.5 µM (inactive) in the assay on U-251; > 100 µM (inactive) in the assay on DU-145; 70.8 µM (inactive) with SF-539. For the same compound, the GI50 in the assay on EKVX was 48.9 µM (inactive).

`CCCC(=O)N[C@H]1CCc2cc(OC)c(OC)c(OC)c2-c2ccc(SC)c(=O)cc21`: the GI50 was < 0.01 µM (active) with Malme-3M; 0.016 µM (active) with NCI/ADR-RES; < 0.01 µM (active) in the assay on SF-295; < 0.0411 µM (active) with TK-10; < 0.01 µM (active) in the assay with MOLT-4; < 0.01 µM (active) in the assay on MDA-MB-231. The GI50 in the assay with SNB-19 is < 0.01 µM (active); in the assay with T47D it was > 100 µM (inactive); with SK-MEL-5, < 0.01 µM (active); in the assay with HCC 2998, < 0.01 µM (active); in the assay on HCT-116, < 0.01 µM (active); in the assay on SK-MEL-28, < 0.01 µM (active). Besides, the GI50 is < 0.01 µM (active) in the assay with HL-60; < 0.01 µM (active) in the assay on SR; 17.1 µM (inactive) with OVCAR-4; < 0.01 µM (active) with U-251; < 0.01 µM (active) in the assay on DU-145; < 0.01 µM (active) with SF-539. For the same compound, the GI50 in the assay with EKVX is 51.9 µM (inactive).

For `Cc1oc2c(cc(O)c3ccccc32)c2cccc1-2`, the GI50 in the assay with Malme-3M was > 100 µM (inactive); in the assay with NCI/ADR-RES, > 100 µM (inactive); in the assay with SF-295 it was > 100 µM (inactive); in the assay with TK-10, > 100 µM (inactive); with MOLT-4, > 100 µM (inactive); with MDA-MB-231, 14.3 µM (inactive). The GI50 in the assay on SNB-19, with UACC-257, in the assay with T47D, in the assay with SK-MEL-5, in the assay with HCC 2998 and in the assay on HCT-116 was > 100 µM (inactive) in each case. For the same compound, the GI50 in the assay with SK-MEL-28 is > 100 µM (inactive); in the assay with HL-60, 96.6 µM (inactive); with SR, > 100 µM (inactive); with U-251, > 100 µM (inactive); with DU-145, 36.1 µM (inactive); with SF-539, > 100 µM (inactive). For the same compound, the GI50 in the assay on EKVX was > 100 µM (inactive).

Take `O=C(/C=C/c1ccccc1)Oc1ccc(C(=O)/C=C/c2ccccc2)cc1`: the GI50 is > 10 µM (inactive) in the assay on Malme-3M; 12.1 µM (inactive) in the assay with NCI/ADR-RES; 12.9 µM (inactive) in the assay with SF-295; 14.5 µM (inactive) in the assay with TK-10; 11.2 µM (inactive) in the assay with MOLT-4; 13.2 µM (inactive) in the assay on MDA-MB-231. For the same compound, the GI50 in the assay on SNB-19 was 15.1 µM (inactive); in the assay with UACC-257, 13.6 µM (inactive); in the assay on T47D, 11 µM (inactive); in the assay with SK-MEL-5 it was 16.9 µM (inactive); in the assay on HCC 2998 it was 8.47 µM (inactive); in the assay with HCT-116 it was 9.64 µM (inactive). Further, the GI50 in the assay with SK-MEL-28 was 12.4 µM (inactive); in the assay on HL-60, 2.84 µM (inactive); in the assay with SR, 2.1 µM (inactive); in the assay with OVCAR-4, 25.8 µM (inactive); in the assay with DU-145, 10.3 µM (inactive); in the assay on SF-539, 3.24 µM (inactive). Also, the GI50 in the assay on EKVX is 13.3 µM (inactive).
